This note sets out measurements from patent US10101322B2, “Photoactivated chemical bleaching of dyes using borates” (GENERAL ELECTRIC COMPANY, priority 2015, dated 2018).

Data set [1] is described as follows: Eosin Y bleaching with borates in ethanol. Conditions: 1 mM borate, 2 min irradiation, 100 W halogen lamp. Here is the method:
To a 2 mL solution of Eosin in ethanol (2.5×10^-5M solution), 2 mL of 1 mM of anionic borate (MBB), a neutral borate a, (Formula I) or a neutral borate b (Formula I) were added and the solution was irradiated for 1-2 minutes using 100 W halogen lamp. Absorbance at λmax of dye was measured to monitor photobleaching, and the results were plotted, as is shown in the bar graph plot of FIG. 7.

The nature of data set [2]: Stability of solid borate on exposure to air (1H NMR, colour).
Data set [3] in a line: Cy3 bleaching with borates in water. Conditions: aqueous solution; in Example 2D 0.5 mM borate, 100 W halogen lamp, absorbance at 552 nm. Here is the method: To a 2 mL solution of previously hydrolyzed Cy3 bis reactive dye in water (3.4×10^-5M solution), 2 mL of 0.5 mM solution of anionic borate (MBB), cationic borate (e′) or cationic borate (f′) were added and the solution was irradiated. […] FIG. 10 is a bar graph comparing bleaching kinetics of Cy3 by different borates.

Data set [4] in a line: Cy3 dye bleaching with borates in ethanol. Conditions: 1 mM borate, 1 minute, 100 W halogen lamp, absorbance at 552 nm. Here is the method: To a 2 mL solution of previously hydrolyzed Cy3 bisreactive dye (GE Healthcare) in ethanol (2.5×10^-5M solution), 2 mL of 1 mM solution of one of the following borates: anionic borate (MBB), neutral borate, a or b (Formula I), and cationic borates e′ or f′ in ethanol was added. Samples were irradiated for 1 minute using 100 W halogen lamp. The decrease in Cy3 absorbance at 552 nm was measured to monitor photobleaching, and the results were plotted, as is shown in FIG. 8. The bar graph compares the bleaching kinetics of Cy3 by different borates in ethanol.

A short description of data set [5]: Eosin Y bleaching with borates in water. Conditions: aqueous solution; in Example 2A 0.5 mM borate, 1 minute, 100 W halogen lamp. Here is the method:
To a 2 mL solution of Eosin in water (2.26×10^-5M solution), 2 mL of 0.5 mM of cationic Borate (e′), Cationic Borate (f′) or anionic borate (MBB) were added, and the solution was irradiated for 1 minute using 100 W halogen lamp. […] FIG. 6 is a bar graph comparing bleaching kinetics of eosin by different borates MBB (a), e′ (b), and f′ (c).

Data set [6] is described as follows: Charge transfer complex formation between Eosin-Y and cationic borate (UV-Vis titration). The following applies: without irradiation. The format is physicochemical. On the procedure: A 50 ul of 1 mM eosin solution in water was further diluted to 3 ml with water and to this was added 1 mM solution of f′ (Formula I) in water in 25 ul portions. UV-Vis spectrum was acquired after every 25 μL f′ addition.
This is believed to be due an electrostatic charge-transfer complex formulation between cationic borate: eosin-y complex.
This phenomenon may be attributed to formation of charge-transfer complex between anionic Eosin-Y and cationic Borate. The electrostatic charge transfer formation is responsible for quenching of Eosin-Y fluorescence.

Data set [7] in a line: Residual eosin bleaching (PICB) in H&E stained tissue sections. Also noted: species or system Human. Conditions: 0.15 mM f′, irradiation in presence of DABCO, three cycles. On the procedure:
Human breast tissue array samples were obtained as tissue slides embedded in paraffin from Clarient (Huntsville, Ala.). Slides were baked at 60° C. for 15 minutes and then washed with xylene (1×10 min) to remove paraffin.
All the slides were stained with hematoxylin and eosin and coverslipped following the standard procedures in the literature (IHC World LLC, Protocol Database, Hematoxylin and Eosin (H&E) Staining Protocol). After staining, the images were obtained as described below.
Bright field and Fluorescence images were taken for all the slides using Leica bright field microscope and Olympus IX81 fluorescence microscope (Olympus Co., Tokyo, Japan respectively. For fluorescence imaging the following excitation filters were used: eosin 500/40 nm, Cy3 550/40 nm and Cy5 650/40 nm.
After imaging, samples were decoverslipped by incubation in xylenes overnight and hydrated by washing in four solutions of ethanol with concentrations decreasing in the order of 100%, 95%, 70%, and 50% followed by a wash with 1× phosphate buffer saline (PBS, pH 7.4). After rehydration, the slides were washed with 1×PBS. A ten minute incubation in 0.3% Triton X-100 in PBS was performed for membrane permeabilization of the tissue, followed by a wash with 1×PBS.
Hydrated slides were treated with dual-buffer heat-induced epitope retrieval. […] Slides were imaged by brightfield and fluorescence microscopy. […]

Data set [8] relates to Her2/CEP17 DNA FISH signal. As to the kind of experiment: DNA FISH signal bleaching and FISH on PICB bleached slides. The arrangement: species or system Human. On the procedure: Slides were H&E stained and bleached as described above. Alternatively previously imaged and archived H&E slides were processed through the steps of decoverslipping, hydration, antigen retrieval, blocking and bleaching with f′ as described above for freshly stained H&E slides.
Slides were immersed in a pre-warmed 0.1% pepsin solution for 8 minutes then placed in room temperature PBS for 2 minutes. Samples were re-fixed in 4% formalin for 10 minutes then washed 2×5 minutes in PBS. Slides were dehydrated in ethanol series 50%, 70%, and 95%, 2 minutes each and allowed to dry on bench top for 10 minutes. Pre-mixed dual Her2/CEP17 probe was vortexed, spun, and added to samples. Samples were coverslipped and sealed with a rubber sealant per usual practice. After allowing rubber cement to cure for 10 minutes, probes were hybridized in Thermobrite cycler: 80° C. denaturation for 10 minutes followed by 37° C. incubation overnight. Rubber cement was removed and slides were decoverslipped in preheated 37° C. 2×SSC for 5 minutes. […] Slides were washed 2×2 minutes with 2×SSC, removed from buffer to dry, coverslipped with 4% DABCO in 90% glycerol/2×SSC, and imaged on an Olympus IX81 fluorescence microscope using a 40× objective with following exposure times: for DAPI (2 ms), spectrum green (CEP17-200 ms), and spectrum orange (Her2-400 ms). […]

Entries after “also recorded” stand apart in the source; their conditions may differ.

Take `c1ccc(C[B-](c2ccccc2)(c2ccccc2)c2ccccc2)cc1` [MBB, monobenzyltriphenyl borate, reference compound]: the “order of Eosin photobleaching kinetics” value in data set [1] was “cationic>neutral>anionic”. Moreover, the “time to evidence of decomposition” value in data set [2] (exposure to air) is recorded as under 10 min. Further, the “colour change on exposure to air” value in data set [2] (white solid stored inertly) is on record as “becoming yellow in color immediately on exposure to air”.

As to `C[N+](C)(C)c1ccc([B-](c2ccc([N+](C)(C)C)cc2)(C2CCCC2)C2CCCC2)cc1.[I-]` [e′], the “Cy3 bleaching kinetics compared to anionic borate (MBB)” value in data set [3] is “much faster bleaching kinetics”. The “order of Eosin photobleaching kinetics” value in data set [1] was “cationic>neutral>anionic”. For the same compound, in data set [4], the Cy3 bleaching kinetics result is listed as “performed well”. Also, the “Eosin-Y photobleaching compared to anionic borate (MBB)” value in data set [5] is “improved”.

Regarding `COS(=O)(=O)[O-].C[N+](C)(C)c1ccc([B-](c2ccc([N+](C)(C)C)cc2)(C2CCCC2)C2CCCC2)cc1` [f′], in data set [3], the “Cy3 bleaching kinetics compared to anionic borate (MBB)” value was “significantly improved; also recorded: much faster bleaching kinetics”. Besides, in data set [6] (1 mM f′ added in 25 ul portions to eosin in water), the “bathochromic (red-shift) of the Eosin-Y peak” value is listed as 518 nm shifts to 523 nm. Moreover, in data set [6] (water), the “colour change of eosin solution on borate addition” value was “clear change in color to non-fluorescent pink”. The “bleaching of residual eosin signal in tissue” value in data set [7] was “efficient bleaching; also recorded: efficiently bleach eosin; also recorded: effective bleaching; also recorded: mostly removed”. The “order of Eosin photobleaching kinetics” value in data set [1] is “cationic>neutral>anionic”. Also, the Cy3 bleaching kinetics result in data set [4] was “performed well”. Moreover, the decomposition in data set [2] (after 2 months of exposure to air) is reported as about 2%. Also, the “degradation by 1 HNMR” value in data set [2] (solid form, exposure to air for over 5 weeks) was “no degradation”. In addition, the “Eosin-Y photobleaching compared to anionic borate (MBB)” value in data set [5] was “significantly improved”. In addition, the “bleaching of DNA FISH signal” value in data set [8] is recorded as “erased”.
